# Experimental data as given in publication PMC6164518 (Marine Drugs, 2018).
# Tests used:
# [1] = in vitro; settings: human
# Procedure: Thus, to verify the hepatotoxicity of 1 and 12j, a 3-(4,5-dimethylthiazol-2-yl)-2,5-diphenyltetrazolium bromide (MTT) assay on the human hepatoma cell line (HepG2) was carried out.
# The cytotoxicity of selected compounds was evaluated on HepG2 cells. Cells were inoculated into 96-well plates. After incubation for 24 h, the cells were treated with different concentrations of tested compounds for 24 h, and then were incubated with 10 μL of 3-(4,5-dimethylthiazol-2-yl)-2,5-diphenyltetrazolium bromide (MTT) at 37 °C for 2 h. The formazan dye product was measured by the absorbance at 490 nm on a Tecan Spark multimode microplate reader.
# [2] = test system: AChE; set-up: method as in PMID 24547899; settings: read-out: AChE IC50 (reported value); cited from earlier work
# [3] = molecular target: T1, Electric eel AChE (Electrophorus electricus, UniProt O42275); experiment: biochemical; settings: AChE from electric eel; mean ± SD from three separate experiments; read-out: IC50 EeAChE
# T1 construct: purchased Sigma-Aldrich (Steinheim, Germany)
# Procedure: (§1) The AChE and BChE inhibitory activities of compounds were determined by using a slightly modified Ellman’s method. Electric eel AChE, equine serum BChE, 5,5′-dithiobis(2-nitrobenzoic acid) (DTNB), phosphate buffer solution (PBS, pH 8.0), acetylthiocholine (ATC) iodide, and butyrylthiocholine (BUC) iodide were purchased from Sigma-Aldrich (Steinheim, Germany). […] Enzyme solutions were prepared at 2.0 U/mL in 2-mL aliquots. The assay medium consisted of 10 μL of enzyme, 40 μL of PBS, 20 μL of 0.01 M DTNB, and 10 μL of tested compound. Assayed solutions of tested compounds were pre-incubated with corresponding ChE for 5 min. The reaction was initiated by the addition of 20 μL of 0.01 M substrate (ATC or BUC). The activity was determined by measuring the increase in absorbance at 410 nm at 37 °C in 2-min intervals using Tecan Spark multimode microplate reader (Mannedorf, Switzerland). The percentage of inhibition (I) was calculated from the measured data as follows: I = (Ac − Ai)/Ac × 100%, where Ai and Ac represent the change in the absorbance in the presence of an inhibitor and without an inhibitor, respectively.
# [4] = molecular target: T2, equine serum BChE (Equus caballus, UniProt P81908); experiment: biochemical; settings: BChE from equine serum; mean ± SD from three separate experiments; read-out: IC50 eqBChE
# T2 construct: purchased Sigma-Aldrich (Steinheim, Germany); host or cells: equine serum
# Procedure: as §1
# [5] = molecular target: T3, Aβ1–42 (Homo sapiens, UniProt P05067); experiment: Inhibition of self-induced Aβ1–42 aggregation (ThT fluorescence); assay type: biochemical; settings: Aβ1–42 2.5 µM, compound 10 µM; mean ± SD of three experiments
# T3 construct: pre-treated Aβ1–42 (GL Biochem Ltd., Shanghai, China) was dissolved in DMSO; purchased GL Biochem Ltd., Shanghai, China
# Procedure: In order to investigate the inhibition of compounds on Aβ1–42 self-aggregation, a ThT-based fluorometric assay was performed. 1,1,1,3,3,3-hexafluoro-2-propanol (HFIP) pre-treated Aβ1–42 (GL Biochem Ltd., Shanghai, China) was dissolved in DMSO to make a 200 µM stock solution. The stock solution was centrifuged at the speed of 13,500 rpm for 10 min. The above supernatant was used for experiments. The tested compounds were dissolved in DMSO at concentrations of 0.8 mM. A screening assay for the tested compounds to inhibit A aggregation was performed by measuring ThT fluorescence emission. Compounds (2 µL) and 2 µL of 200 µM Aβ1–42 were added into 76 µL of phosphate-buffered saline (PBS at pH 7.4) in a 96-well plate. After incubation for 24 h at room temperature, 80 µL of 5 µM of ThT solution (in 50 mM of glycine-NaOH at pH 8.5) was added to the reaction solution. Fluorescence emission was measured at 490 nm with an excitation wavelength of 450 nm on a Tecan Spark multimode microplate reader. […] The fluorescence intensities were compared, and the % inhibition was calculated by the following equation: 100 − [(Fi − Fb)/(Fo − Fb) × 100], where Fi, Fo and Fb are the fluorescence intensities obtained for Aβ aggregation in the presence of inhibitors Aβ1–42 and ThT; in the presence of Aβ1–42 and THT but no inhibitors; and the blanks containing ThT only.
# [6] = molecular target: T4, Aβ1–42 and AChE (Electrophorus electricus, UniProt O42275); experiment: Inhibition of AChE-induced Aβ1–42 aggregation (ThT fluorescence); assay type: biochemical; settings: Aβ1–42 2.5 µM, AChE 0.2 U/mL, compound 8 µM; mean ± SD of three experiments
# T4 construct: HFIP pre-treated Aβ1–42 (GL Biochem Ltd., shanghai, China) was dissolved in DMSO; purchased GL Biochem Ltd. (Aβ1–42)
# Procedure: The stock solution was centrifuged at the speed of 13,500 rpm for 10 min. The above supernatant was used for experiments. […] Fluorescence emission was measured at 490 nm with an excitation wavelength of 450 nm on a Tecan Spark multimode microplate reader.
# T2 sequence (P81908 whole entry): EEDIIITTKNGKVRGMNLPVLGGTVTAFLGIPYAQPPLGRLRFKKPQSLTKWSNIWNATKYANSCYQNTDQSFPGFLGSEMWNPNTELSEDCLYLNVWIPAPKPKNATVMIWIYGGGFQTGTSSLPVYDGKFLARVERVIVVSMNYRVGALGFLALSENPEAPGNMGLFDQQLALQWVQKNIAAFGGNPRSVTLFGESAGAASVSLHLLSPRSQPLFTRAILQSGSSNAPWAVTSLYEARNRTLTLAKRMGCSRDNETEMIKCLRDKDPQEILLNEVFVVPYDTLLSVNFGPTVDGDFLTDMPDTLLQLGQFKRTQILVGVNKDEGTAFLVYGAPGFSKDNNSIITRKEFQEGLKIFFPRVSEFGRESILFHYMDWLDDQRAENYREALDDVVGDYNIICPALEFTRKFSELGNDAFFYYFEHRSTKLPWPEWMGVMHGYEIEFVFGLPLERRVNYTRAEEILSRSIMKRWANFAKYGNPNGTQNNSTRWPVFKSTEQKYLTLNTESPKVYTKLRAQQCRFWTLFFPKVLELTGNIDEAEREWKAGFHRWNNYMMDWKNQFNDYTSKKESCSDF
# T4 sequence (O42275 24-633): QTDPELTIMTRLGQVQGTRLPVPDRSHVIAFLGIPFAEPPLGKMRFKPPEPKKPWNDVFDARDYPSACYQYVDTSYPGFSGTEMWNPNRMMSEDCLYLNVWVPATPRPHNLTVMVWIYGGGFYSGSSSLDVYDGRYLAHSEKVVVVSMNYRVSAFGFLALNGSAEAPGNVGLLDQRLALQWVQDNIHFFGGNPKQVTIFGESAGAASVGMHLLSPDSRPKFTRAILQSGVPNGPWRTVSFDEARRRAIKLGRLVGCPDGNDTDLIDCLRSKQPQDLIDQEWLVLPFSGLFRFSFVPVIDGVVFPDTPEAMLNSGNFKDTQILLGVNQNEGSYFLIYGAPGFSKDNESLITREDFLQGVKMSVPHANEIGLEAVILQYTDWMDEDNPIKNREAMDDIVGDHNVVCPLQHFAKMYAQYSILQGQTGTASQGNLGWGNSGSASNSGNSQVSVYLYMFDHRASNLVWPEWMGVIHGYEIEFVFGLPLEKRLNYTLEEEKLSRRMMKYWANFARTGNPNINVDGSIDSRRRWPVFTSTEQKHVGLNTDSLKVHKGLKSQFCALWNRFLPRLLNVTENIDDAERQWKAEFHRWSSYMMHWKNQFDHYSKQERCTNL
# T1 sequence (O42275 24-633): as above
# T3 sequence (P05067 672-713 limits assumed): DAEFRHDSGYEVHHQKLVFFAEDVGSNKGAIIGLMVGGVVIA
compound,measurement,setting,value
"COc1c(Br)cc(CC(=O)NCCCCC[N+](C)(C)C)cc1Br [Compound 1, Pulmonarin B]",IC50 at 24 h,[1],> 80 µM
same,IC50,[2],36 µM
same,IC50,[3],37 ± 2.11 µM
same,IC50,[4],30.7 ± 1.44 µM
same,Inhibition of Aβ Aggregation (%) Self-Induced,[5],29.78 ± 1.45%
same,Inhibition of Aβ Aggregation (%) AChE-Induced,[6],27.60 ± 1.96%
